From patent publication US20150126467A1, “USE OF ALGINATE OLIGOMERS TO ENHANCE THE EFFECTS OF ANTIFUNGAL AGENTS” (AlgiIPharma AS, priority 2011, published 2015)
Converted amounts (≈) assume the structure as drawn. Like-named read-outs stand apart in the source and are kept apart here.

Columns and labels:
[1] = system: Candida albicans, CCUG 39343; assay: Robotic MIC assay (Example 1); format: cell-based; conditions: for MIC: Candida albicans, CCUG39343, 24 h, 24 hours, read-out: Minimum Inhibitory Concentration (MIC); for reduction in MIC values: comparing 0 and 10% G-block
Experimental: (§1) A robotic MIC Assay was performed as follows. OligoG CF-5/20 were dissolved in medium (Mueller-Hinton broth or M19 broth depending on experiment) to 1.25 times of the desired assay concentrations (2, 6 and 10%). The antifungal agents under test were dissolved in medium without OligoG CF-5/20 and in medium with OligoG CF-5/20 at a concentration of 1.25 times the highest desired assay concentrations. For experiments where the effect of adding different concentrations of Na^+ was investigated, NaCl was dissolved in medium to the desired concentrations (10, 30 and 50 mM).
(§2) Two-fold serial dilutions of antifungal agents were made in medium with different concentrations of OligoG CF-5/20, and the solutions were placed in four parallel wells in Nunc 384-well micro plates (30 μl per well in Nunc 242757 microplates). A group of 8 wells with no addition of antifungal agents for each OligoG CF-5/20 concentration was included on each microplate as growth reference. To each well in the 384-well assay plates was added 7.5 μl of medium inoculated with a frozen stock culture of Candida albicans (strain CCUG 39343).
The frozen stock culture was prepared by growing the Candida strain at 34° C. for 48 h on YM-agar. 1-3 colonies from the plates were grown in 6 ml YM-broth at 34° C. for 14 h before freezing in 6% glycerol at −80° C. Each batch of frozen stock culture was then characterized in separate growth experiments using Mueller-Hinton or M19 broth to determine the minimum amount of inoculum giving satisfactory growth after 48 h under the conditions relevant for the MIC assay. This inoculation procedure is used in order to reduce day to day variation in bioassays.
(§3) The micro plates were placed in plastic bags and incubated without shaking at 34° C. The optical density at 600 nm in the microwells was measured after approximately 13, 18, 24 and 34 hours of incubation, and the relative growth yield in each well was calculated based on the growth in the reference groups.

[2] = system: Candida albicans; assay: Robotic MIC assay with asthma/COPD medicaments (Example 5); format: cell-based; conditions: Mueller-Hinton broth; for MIC: Candida albicans, 24 h
Experimental: as §1, §2, §3
The robotic assay described in Example 1 was employed in this Example. […] The concentration utilized for the different components were based on information from Manocha et al. (2006).
In this assay only Mueller-Hinton broth was used since this is the medium specified for standardized MIC assays (Jorgensen et al., 1999).

C[C@@H]1[C@H](O)[C@@H](C)/C=C/C=C/C=C/C=C/C=C/C=C/C=C/[C@H](O[C@@H]2O[C@H](C)[C@@H](O)[C@H](N)[C@@H]2O)C[C@@H]2O[C@](O)(C[C@@H](O)C[C@@H](O)[C@H](O)CC[C@@H](O)C[C@@H](O)CC(=O)O[C@H]1C)C[C@H](O)[C@H]2C(=O)O [Amphotericin B, amphotericin B]
MIC ([1]; M19, NaCl 0 mM): 1.2 µg/mL (≈ 1.3 µM)
MIC ([1]; M19, NaCl 10 mM): 0.3 µg/mL (≈ 0.325 µM)
MIC ([1]; M19, NaCl 30 mM): 0.3 µg/mL (≈ 0.325 µM)
MIC ([1]; M19, NaCl 50 mM): 0.3 µg/mL (≈ 0.325 µM)
MIC ([1]; M19, OligoG CF 5/20 0%): 1.2 µg/mL (≈ 1.3 µM)
MIC ([1]; M19, OligoG CF 5/20 2%): 0.3 µg/mL (≈ 0.325 µM)
MIC ([1]; M19, OligoG CF 5/20 6%): 0.075 µg/mL (≈ 0.0812 µM)
MIC ([1]; M19, OligoG CF 5/20 10%): 0.0375 µg/mL (≈ 0.0406 µM)
MIC ([1]; Mueller-Hinton, NaCl 0 mM): 0.15 µg/mL (≈ 0.162 µM)
MIC ([1]; Mueller-Hinton, NaCl 10 mM): 0.15 µg/mL (≈ 0.162 µM)
MIC ([1]; Mueller-Hinton, NaCl 30 mM): 0.15 µg/mL (≈ 0.162 µM)
MIC ([1]; Mueller-Hinton, NaCl 50 mM): 0.15 µg/mL (≈ 0.162 µM)
MIC ([1]; Mueller-Hinton, OligoG CF 5/20 0%): 0.15 µg/mL (≈ 0.162 µM)
MIC ([1]; Mueller-Hinton, OligoG CF 5/20 2%): 0.15 µg/mL (≈ 0.162 µM)
MIC ([1]; Mueller-Hinton, OligoG CF 5/20 6%): 0.0375 µg/mL (≈ 0.0406 µM)
MIC ([1]; Mueller-Hinton, OligoG CF 5/20 10%): 0.0094 µg/mL (≈ 0.0102 µM)
reduction in MIC values ([1]; M19): 32 ×
reduction in MIC values ([1]; Mueller-Hinton): 16 ×
effect of addition of OligoG CF-5/20 on MIC values ([1]; both media tested (M19, Mueller-Hinton)): reduction in MIC values
MIC ([2]; no medicament added, G-block 0%): 0.0938 µg/mL (≈ 0.102 µM)
MIC ([2]; no medicament added, G-block 2%): 0.0938 µg/mL (≈ 0.102 µM)
MIC ([2]; no medicament added, G-block 6%): 0.0469 µg/mL (≈ 0.0508 µM)
MIC ([2]; no medicament added, G-block 10%): 0.0234 µg/mL (≈ 0.0253 µM)
MIC ([2]; with Budesonide 0.01 mM, G-block 0%): 0.0938 µg/mL (≈ 0.102 µM)
MIC ([2]; with Budesonide 0.01 mM, G-block 2%): 0.0938 µg/mL (≈ 0.102 µM)
MIC ([2]; with Budesonide 0.01 mM, G-block 6%): 0.0469 µg/mL (≈ 0.0508 µM)
MIC ([2]; with Budesonide 0.01 mM, G-block 10%): 0.0469 µg/mL (≈ 0.0508 µM)
MIC ([2]; with Formoterol 0.5 mM (2% DMSO), G-block 0%): 0.0469 µg/mL (≈ 0.0508 µM)
MIC ([2]; with Formoterol 0.5 mM (2% DMSO), G-block 2%): 0.0469 µg/mL (≈ 0.0508 µM)
MIC ([2]; with Formoterol 0.5 mM (2% DMSO), G-block 6%): 0.0234 µg/mL (≈ 0.0253 µM)
MIC ([2]; with Formoterol 0.5 mM (2% DMSO), G-block 10%): 0.0117 µg/mL (≈ 0.0127 µM)
MIC ([2]; with Ipratropium bromide 0.01 mM, G-block 0%): 0.0938 µg/mL (≈ 0.102 µM)
MIC ([2]; with Ipratropium bromide 0.01 mM, G-block 2%): 0.0469 µg/mL (≈ 0.0508 µM)
MIC ([2]; with Ipratropium bromide 0.01 mM, G-block 6%): 0.0234 µg/mL (≈ 0.0253 µM)
MIC ([2]; with Ipratropium bromide 0.01 mM, G-block 10%): 0.0117 µg/mL (≈ 0.0127 µM)
MIC ([2]; with Ipratropium bromide 1 mM, G-block 0%): 0.188 µg/mL (≈ 0.203 µM)
MIC ([2]; with Ipratropium bromide 1 mM, G-block 2%): 0.0938 µg/mL (≈ 0.102 µM)
MIC ([2]; with Ipratropium bromide 1 mM, G-block 6%): 0.0469 µg/mL (≈ 0.0508 µM)
MIC ([2]; with Ipratropium bromide 1 mM, G-block 10%): 0.0234 µg/mL (≈ 0.0253 µM)
MIC ([2]; with Salbutamol 0.01 mM, G-block 0%): 0.0469 µg/mL (≈ 0.0508 µM)
MIC ([2]; with Salbutamol 0.01 mM, G-block 2%): 0.0469 µg/mL (≈ 0.0508 µM)
MIC ([2]; with Salbutamol 0.01 mM, G-block 6%): 0.0234 µg/mL (≈ 0.0253 µM)
MIC ([2]; with Salbutamol 0.01 mM, G-block 10%): 0.0117 µg/mL (≈ 0.0127 µM)
MIC ([2]; with Salbutamol 1 mM, G-block 0%): 0.0469 µg/mL (≈ 0.0508 µM)
MIC ([2]; with Salbutamol 1 mM, G-block 2%): 0.0469 µg/mL (≈ 0.0508 µM)
MIC ([2]; with Salbutamol 1 mM, G-block 6%): 0.0234 µg/mL (≈ 0.0253 µM)
MIC ([2]; with Salbutamol 1 mM, G-block 10%): 0.0117 µg/mL (≈ 0.0127 µM)
reduction in MIC values ([2]; addition of 10% OligoG CF-5/20 compared to without OligoG CF-5/20): 4 ×
